How the values were obtained:
[1] = test system: AM141 worm; test: polyQ40 aggregation in AM141 worms; assay type: in vivo, C. elegans; settings: dose dependent
Description: FIG. 21, panels A-F: AIC106 prevents neuronal loss and proteotoxicity in strains expressing human neurotoxic proteins. Panel A) Dopaminergic neuronal loss in day-5 UA44 worms was quantified by scoring percentage of worms with intact 4-CEP neurons in AIC106 and DMSO-control treatment. [N=3 independent experiments (mean±SD). ***p<0.001, by one-way ANOVA with Tukey's multiple comparisons test]. Motor function in (panel B) day-7 NL5901 and (panel C) day-5 CL2006 worms were quantified by scoring number of thrashes for an individual worm over the period of 30 seconds (dots) in AIC106 and DMSO-control treatment. […] Panel D) Motor function in temperature sensitive (enhanced paralysis at 25° C.) CL4176 worms was determined by scoring percent of worms paralyzed in AIC106 and DMSO-control treatment. […] P-value calculated by Logrank test]. Panel F) Effect of AIC106 on polyQ40 aggregation was determined by scoring number of polyQ40-YFP fluorescent puncta in an individual AM141 worm treated with AIC106 and DMSO-control. […]
Synchronized populations of day-1 adult worms expressing reporter GFP transgene or stained with a dye/stain (Lysotracker and TMRM) and grown at 20° C. were transferred to compound or DMSO plates. Fluorescence expression was analyzed at the time specified for each individual strain (see figure legends). […] Fluorescence intensity normalized to worm area was measured using NIH ImageJ software. […]

[2] = test system: parkin mutant PD mouse model; test: Age-related parkin mutant PD mouse model, C1 in the feed; assay type: in vivo; settings: oral in the feed
Description: Relative TFEB expression as assessed by qPCR from mRNA extracted from the SNpc of parkin mutant versus WT littermates administered C1 in the feed versus normal chow; UA was included as a positive control.
Stereological DAergic SNpc counts and motor behavior as assessed by rearing frequency in parkin mutant versus WT littermates administered C1 in the feed versus normal chow.

Compound: O=c1oc2c3c4c(cc2c2c1CCC2)CCCN4CCC3 [C1, 2,3,6,7,10,11-Hexahydro-1H,5H-cyclopenta(3,4)(1)benzopyrano(6,7,8-ij)quinolizin-12(9H)-one]
- poly-Q40 aggregates [1]: significantly decreased poly-Q40 aggregates
- motor deficits (rearing frequency) ([2]; 6 month period (FIG. 16)): prevents both neuronal cell loss and motor deficits
- neuronal cell loss (DAergic SNpc counts) ([2]; 6 month period (FIG. 16)): prevents both neuronal cell loss and motor deficits
- TFEB expression in SNpc ([2]; 6 month period from 14-16 mo. (FIG. 15)): TFEB target engagement

— patent US12673039B2, “Methods of inducing autophagy using coumarin derivatives and related compounds” (Buck Institute for Research on Aging, priority 2019, dated 2026)
